In patent US11426405B2, “Inhibition of JAK-STAT signaling inhibits formation of neutrophil extracellular traps (NETs)” (The Brigham and Women's Hospital, Inc., priority 2017, dated 2022):
Where “and” joins values, the source holds several entries; their conditions need not be identical. Equal entries are not always repeated.

Tests used:
[1] = test system: neutrophils from patients with MPNs; assay: NET formation in neutrophils from MPN patients receiving a JAK inhibitor; type: cell-based, human; details: individual JAK inhibitor-treated MPN patients; 4 μM ionomycin stimulation; some patients also on ASA or Hydrea
Source text: Whole blood was collected into ethylenediaminetetraacetic acid (EDTA)-coated tubes. Patients and controls were excluded if they had conditions that are known or suspected to affect NET formation such as active infection, active cancer (37), history of an autoimmune disease (38), treatment with immunosuppressive or anti-inflammatory drugs or history of diabetes (29). In addition, patients with recent history of infection, trauma or surgery (3 months before blood draw) were excluded. Therapy with acetylsalicylic acid (aspirin), hydroxyurea or anagrelide was allowed. […]
Neutrophil isolation and NET formation were carried out as previously described (39). […] Purity of cells was >95% as determined by Wright-Giemsa staining (FIG. 5B). For the screening NET assay, NET-bound neutrophil elastase was quantified using an available commercial kit according to manufacturer's instructions (Cayman chemical). […]
Fixed cells were processed as detailed above. Immunostaining, fluorescence microscopy and NET quantification procedures were similar for human and mouse specimens. […]
Images were acquired on an Axiovert 200M wide-field fluorescence microscope (Zeiss) coupled to an AxioCam MR3 monochromatic CCD camera (Zeiss) using a Zeiss Plan-Neofluar 20×/0.4 Con Ph2 objective lens with the Zeiss AxioVision software (version 4.6.3.0). […]

[2] = test system: Jak2^WT and Jak2^V617F mice; assay: Venous stenosis model: partial ligation of the inferior vena cava; type: in vivo, mouse; details: for Thrombus formation rate (clots/mice): DNase 50 μg i.p. and 10 μg i.v. after surgery
Procedure: Sections were allowed to come to room temperature, before rinsing in PBS with 0.1% Tween 20 (PBST). Sections were blocked for 1 hour at room temperature with 10% FBS in PBST in a humidified chamber. Sections were incubated in the same chamber overnight at 4° C. with the primary antibodies described above against Ly6G and H3^cit in 10% FBS in PBST. Slides were rinsed in PBST before incubating with the secondary antibody under the same conditions as used for the primary antibody (goat anti-rat Ig (IgG) (Alexa555, 1.5 μg/mL) or donkey anti-rabbit IgG (Alexa647, 1.5 μg/mL). After a further wash in PBST sections were stained with DAPI and mounted as described above. Sections were visualized using Axiolmager D1 (Carl Zeiss Microscopy) and images taken using Axiocam MRc Camera (Carl Zeiss Microscopy). Zen software 2.3 (version 13) was used to analyze images. For the final images used in the figures, Alexa647 was represented using green.
After bone marrow harvest, c-Kit positive marrow cells were obtained from VavCre/Jak2^V617F KI mice using CD117 Microbeads according to manufacturer's instructions (Miltenyi Bitotec).
DNase 1 (Pulmozyme, Genentech) was diluted in sterile saline and injected immediately after surgery (50 μg intraperitoneally and 10 μg intravenously via tail vein). […] Mice were assessed for thrombosis at 4 hours.

| Molecule | % NET formation [1] | Thrombosis rate at 2 hours post-IVC ligation ([2]; Jak2^V617F mice, ruxolitinib 90 mg/kg twice a day for 72 hours, vehicle 45%) | Thrombosis rate at 4 hours post-IVC ligation ([2]; Jak2^V617F mice, ruxolitinib 90 mg/kg twice a day for 72 hours, vehicle 71%) | Thrombus formation rate (clots/mice) ([2]; Jak2^V617F mice, vehicle 5/7, p=0.007) | Thrombus formation rate (clots/mice) ([2]; Jak2^WT mice, vehicle 5/8, p=0.06) |
| --- | --- | --- | --- | --- | --- |
| C[C@H](Nc1cc(-c2cnn(C)c2)cc(Nc2cnccn2)n1)c1ccc(F)cc1 [NS-018] | 6.9% | – | – | – | – |
| N#CC[C@H](C1CCCC1)n1cc(-c2ncnc3[nH]ccc23)cn1 [Ruxolitinib] | 1.5% and 5.9% and 5.4% and 5.5% | 0% | 21% | – | – |
| DNase: deoxyribonuclease (DNase; Pulmozyme, Genentech), disrupts NET structures (protein, UniProt P24855 23-282, looked up) Deoxyribonuclease-1: LKIAAFNIQTFGETKMSNATLVSYIVQILSRYDIALVQEVRDSHLTAVGKLLDNLNQDAPDTYHYVVSEPLGRNSYKERYLFVYRPDQVSAVDSYYYDDGCEPCGNDTFNREPAIVRFFSRFTEVREFAIVPLHAAPGDAVAEIDALYDVYLDVQEKWGLEDVMLMGDFNAGCSYVRPSQWSSIRLWTSPTFQWLIPDSADTTATPTHCAYDRIVVAGMLLRGAVVPDSALPFNFQAAYGLSDQLAQAISDHYPVEVMLK | – | – | – | 0/8 | 1/7 |
